Assay results taken from patent publication US20260226494A1 (HANGZHOU RUIFENG BIOSCIENCE CO., LTD., priority 2023, published 2026).

Assays:
[1] = system: non-transgenic soybean variety Wandou 28; assay: Field herbicide tolerance test, single herbicides (Example 7)
Description: (§1) A randomized block design was adopted with a total of 24 plots, each measuring 4 m×5 m. […] A 1 m interval was set between adjacent plots, with three replicates for each soybean type. At the V3 growth stage, the following treatments were applied: 1) no herbicide application; 2) respective applications of glyphosate at 1800 g a.i./ha, MCPA at 1848 g a.i./ha, mesotrione at 123.75 g a.i./ha, penoxsulam at 45 g a.i./ha, nicosulfuron at 102 g a.i./ha, pyrazosulfuron-ethyl at 56.25 g a.i./ha, and flazasulfuron at 112.5 g a.i./ha. Seedling emergence rate, plant height (measured from the tallest 10 plants), and herbicide damage symptoms (evaluated from the 10 plants with the mildest symptoms) were investigated at 1, 2, and 4 weeks post-application. Herbicide damage symptom grading was performed according to GB/f 17980.42-2000. The formula for calculating herbicide damage rate was as follows:
(§2) [formula] • (×-herbicide damage rate in percentage; N-number of plants with the same level of herbicide damage; S-herbicide damage level; T-total number of plants evaluated; M-highest level)∘

[2] = system: transgenic soybean event XP-2; assay: as above; details: for tolerance level of transgenic soybean event XP-2 to herbicides (in words): field test, Table 10 doses
Description: as §1, §2

[3] = system: T1 generation soybean transgenic events; assay: Flazasulfuron tolerance test on progeny of 54 single-copy events; design: dose or concentration left out as unconfirmed; details: […] g a.i./ha
[4] = system: T1 generation of five transformation events (XP-2, XP-195, XP-325, XP-326, XP-552); design: species or system Glycine max; details: in vivo
Description: At the V4 stage, 225 g a.i./ha of flazasulfuron was sprayed, and the tolerance of each transformant was observed.

[5] = system: T1 generation soybean transgenic events; details: in vivo
[6] = system: T0 transgenic soybean plants; assay: Greenhouse glyphosate spray screen of T0 transgenic events; format: in vivo, Glycine max; details: 1800 g a.i./ha sprayed at V4 stage; 546 T0 events
Description: After hardening, 685 T0 generation transgenic events obtained from Example 1 were transplanted into natural soil in a greenhouse. Among them, 546 seedlings successfully survived in the greenhouse. When the T0 transgenic soybean plants reached the V4 vegetative stage, 1800 g a.i/ha ofglyphosate was sprayed.

[7] = Wandou 28, 1 week after spraying at V3, doses as Table 10 c1
[8] = Wandou 28, 2 weeks after spraying at V3, doses as Table 10 c1
[9] = Wandou 28, 4 weeks after spraying at V3, doses as Table 10 c1
[10] = XP-2, 2 weeks after spraying at V3, doses as Table 10 c1
[11] = XP-2, 4 weeks after spraying at V3, doses as Table 10 c1

## COc1cc(OC)nc(NC(=O)NS(=O)(=O)c2ncccc2C(F)(F)F)n1 [Flazasulfuron, flazasulfuron]
[1]; in vivo
  Seedling rate %: 0%
  damage rate(%) After 1 week: 100%
  damage rate(%) After 2 weeks: 100%
  damage rate(%) After 4 weeks: 100%
[2]; in vivo
  Height(cm) After 1 week: 12.49 ± 0.35 cm
  Height(cm) After 2 weeks: 14.74 ± 0.2 cm
  Height(cm) After 4 weeks: 21.69 ± 0.32 cm
  Seedling rate %: 100%
  damage rate(%) After 1 week: 0%
  damage rate(%) After 2 weeks: 0%
  damage rate(%) After 4 weeks: 0%
[3]
  Number of Events: Plant death: 0
[4]
  tolerance of each transformant (in words): XP-2 exhibited the highest tolerance
[5]
  Number of Events: No phytotoxicity: 5
  Number of Events: having phytotoxicity, New leaves getting yellow: 49

## O=C(O)CNCP(=O)(O)O [Glyphosate, glyphosate]
[1]; [7]
  damage rate(%) After 1 week: 100%
[1]; [8]
  damage rate(%) After 2 weeks: 100%
[1]; [9]
  damage rate(%) After 4 weeks: 100%
[2]; [10]
  Height(cm) After 2 weeks: 14.58 ± 0.24 cm
  damage rate(%) After 2 weeks: 0%
[2]; [11]
  Height(cm) After 4 weeks: 21.6 ± 0.52 cm
  damage rate(%) After 4 weeks: 0%
[2]
  tolerance level of transgenic soybean event XP-2 to herbicides (in words): high tolerance
[6]
  Number of Events: Growth stunted, dwarfed plants (phytotoxicity): 327
  Number of Events: Plant death: 132
  Number of Events: no phytotoxicity: 87

## Cc1cc(Cl)ccc1OCC(=O)O [MCPA]
[1]; [7]
  damage rate(%) After 1 week: 100%
[1]; [8]
  damage rate(%) After 2 weeks: 100%
[1]; [9]
  damage rate(%) After 4 weeks: 100%
[2]; [10]
  Height(cm) After 2 weeks: 14.7 ± 0.32 cm
  damage rate(%) After 2 weeks: 0%
[2]; [11]
  Height(cm) After 4 weeks: 21.6 ± 0.52 cm
  damage rate(%) After 4 weeks: 0%
[2]
  tolerance level of transgenic soybean event XP-2 to herbicides (in words): high tolerance

## CS(=O)(=O)c1ccc(C(=O)C2C(=O)CCCC2=O)c([N+](=O)[O-])c1 [Mesotrione, mesotrione]
[1]; [7]
  damage rate(%) After 1 week: 100%
[1]; [8]
  damage rate(%) After 2 weeks: 100%
[1]; [9]
  damage rate(%) After 4 weeks: 100%
[2]; [10]
  Height(cm) After 2 weeks: 14.59 ± 0.24 cm
  damage rate(%) After 2 weeks: 0%
[2]; [11]
  Height(cm) After 4 weeks: 21.63 ± 0.52 cm
  damage rate(%) After 4 weeks: 0%
[2]
  tolerance level of transgenic soybean event XP-2 to herbicides (in words): high tolerance

## COc1cc(OC)nc(NC(=O)NS(=O)(=O)c2ncccc2C(=O)N(C)C)n1 [Nicosulfuron, nicosulfuron]
[1]; [7]
  damage rate(%) After 1 week: 100%
[1]; [8]
  damage rate(%) After 2 weeks: 100%
[1]; [9]
  damage rate(%) After 4 weeks: 100%
[2]; [10]
  Height(cm) After 2 weeks: 14.73 ± 0.24 cm
  damage rate(%) After 2 weeks: 0%
[2]; [11]
  Height(cm) After 4 weeks: 21.66 ± 0.53 cm
  damage rate(%) After 4 weeks: 0%
[2]
  tolerance level of transgenic soybean event XP-2 to herbicides (in words): high tolerance

## COc1cnc(OC)n2nc(NS(=O)(=O)c3c(OCC(F)F)cccc3C(F)(F)F)nc12 [Penoxsulam, penoxsulam]
[1]; in vivo
  Seedling rate %: 0%
  damage rate(%) After 1 week: 100%
  damage rate(%) After 2 weeks: 100%
  damage rate(%) After 4 weeks: 100%
[2]; in vivo
  Height(cm) After 1 week: 12.75 ± 1.01 cm
  Height(cm) After 2 weeks: 14.6 ± 0.24 cm
  Height(cm) After 4 weeks: 21.61 ± 0.52 cm
  Seedling rate %: 100%
  damage rate(%) After 1 week: 0%
  damage rate(%) After 2 weeks: 0%
  damage rate(%) After 4 weeks: 0%

## CCOC(=O)c1cnn(C)c1S(=O)(=O)NC(=O)Nc1nc(OC)cc(OC)n1 [Pyrazosulfuron-ethyl, pyrazosulfuron-ethyl]
[1]; [7]
  damage rate(%) After 1 week: 100%
[1]; [8]
  damage rate(%) After 2 weeks: 100%
[1]; [9]
  damage rate(%) After 4 weeks: 100%
[2]; [10]
  Height(cm) After 2 weeks: 14.6 ± 0.24 cm
  damage rate(%) After 2 weeks: 0%
[2]; [11]
  Height(cm) After 4 weeks: 21.63 ± 0.52 cm
  damage rate(%) After 4 weeks: 0%
[2]
  tolerance level of transgenic soybean event XP-2 to herbicides (in words): high tolerance
